Literature values, collected in patent US6572638B1, “Method of controlling body temperature while inhibiting thermoregulatory responses” (Radiant Medical, Inc., priority 1999, dated 2003).

Test system: shivering threshold
Settings: patients at normal temperature warmed until sweating then cooled until shivering occurred; Talke, et al., Anesthesiology 87(4):835-841, 1997

SMILES	effect on shivering threshold
Cc1cccc([C@H](C)c2cnc[nH]2)c1C [dexmedetomidine]	able to lower the shivering threshold
Clc1cccc(Cl)c1N=C1NCCN1 [clonidine]	able to lower the shivering threshold
